What all share (test): Broth microdilution MIC in CAMHB
Holding throughout (assay type): cell-based
Background: Broth dilution looks for growth in wells or tubes with falling amounts of substance.

In experiment [1] the test system is A. baumannii ATCC 19606. Conditions: Acinetobacter baumannii, ATCC19606; MHB; read-out: Minimum Inhibitory Concentration, A. baumannii ATCC 19606. Summed up: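 MIC, read by eye, is the lowest compound concentration giving no bacterial growth after 16-20 h at 37° C. Test compounds are serially diluted 2-fold in CAMHB and seeded with 2-8×10^5 CFU/mL of bacteria taken from a 3-5 h shaking culture, following CLSI methods.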

The subject of experiment [2] is E. coli 901C. Conditions: Escherichia coli; E. coli 901C (hyper-permeable); MHB; read-out: Minimum Inhibitory Concentration, E. coli 901C. Summed up:
(§1)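 Per CLSI broth microdilution, colonies were grown 3-5 h at 37° C in cation-adjusted Mueller Hinton broth, then diluted to a starting inoculum of 2-8×10^5 CFU/mL against 2-fold serial compound dilutions. Plates were incubated 16-20 h at 37° C, and MIC was read visually as the lowest concentration with no growth.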

Experiment [3] relates to E. coli AG100A. As to conditions: Escherichia coli, read-out: Minimum Inhibitory Concentration, E. coli AG100A. Summed up: as §1
Experiment [4] has as its system E. coli AG100. As to conditions: Escherichia coli; E. coli AG100 (wild-type parent); MHB; read-out: Minimum Inhibitory Concentration, E. coli AG100. The essentials:
as §1

The subject of experiment [5] is E. coli ATCC 25922. Conditions: Escherichia coli, ATCC25922; E. coli ATCC 25922; MHB; read-out: Minimum Inhibitory Concentration, E. coli 25922. The essentials:
as §1

Experiment [6] concerns E. coli D22. Conditions: Escherichia coli; E. coli D22 (hyper-permeable); MHB; read-out: Minimum Inhibitory Concentration, E. coli D22. The essentials: as §1
The subject of experiment [7] is K. pneumoniae 848844 producing SHV-11 and KPC-2. Conditions: Klebsiella pneumoniae, read-out: Minimum Inhibitory Concentration, K. pneumoniae 848844. Summed up: as §1
Experiment [8] has as its system K. pneumoniae SI-117 producing VIM-1. Conditions: Klebsiella pneumoniae, read-out: Minimum Inhibitory Concentration, K. pneumoniae SI-117. The essentials:
as §1

For experiment [9], the system named is K. pneumoniae UMM producing SHV-5 and KPC-2. Conditions: Klebsiella pneumoniae, read-out: Minimum Inhibitory Concentration, K. pneumoniae UMM. The essentials: as §1
The subject of experiment [10] is P. aeruginosa (ΔmexAB-oprM). Conditions: Pseudomonas aeruginosa, read-out: Minimum Inhibitory Concentration, P. aeruginosa ΔmexAB-OprM. Summed up:
as §1

Experiment [11] concerns P. aeruginosa ATCC 27853. As to conditions: Pseudomonas aeruginosa, ATCC27853; MHB; read-out: Minimum Inhibitory Concentration, P. aeruginosa ATCC 27853. Summed up:
as §1

Experiment [12] deals with P. aeruginosa ATCC 35151. Conditions: Pseudomonas aeruginosa, ATCC35151; MHB; hyper-permeable strain; read-out: Minimum Inhibitory Concentration, P. aeruginosa ATCC 35151. The essentials: as §1

Each structure is given as a SMILES string. ≈ marks a conversion by molar mass, not a printed value. Bounds are passed on as bounds.

For the compound `NCCN1CCN(C(=O)N[C@H](C(=O)N[C@H]2Cc3cccc(C(=O)O)c3OB2O)c2ccc(O)c([N+](=O)[O-])c2)C(=O)C1=O` (single isomer, unassigned) [Example 200], the MIC in experiment [1] was over 128 µg/mL; in experiment [2], 8 to 16 µg/mL (≈ 13.7 to 27.4 µM); in experiment [3], 32 to 64 µg/mL (≈ 54.8 to 110 µM); in experiment [4] it was over 128 µg/mL; in [5], over 128 µg/mL; in experiment [6], over 128 µg/mL. For the same compound, the MIC is over 128 µg/mL in experiment [7]; over 128 µg/mL in experiment [8]; over 128 µg/mL in experiment [9]; over 128 µg/mL in experiment [10]; over 128 µg/mL in [11]; 2 to 4 µg/mL (≈ 3.42 to 6.85 µM) in [12].
In the case of `CCN1CCN(C(=O)N[C@H](C(=O)N[C@H]2Cc3cccc(C(=O)O)c3OB2O)c2ccc(C(=O)O)c(F)c2Cl)C(=O)C1=O` (single isomer, unassigned) [Example 202], the MIC in experiment [1] is over 128 µg/mL; in [2], 0.5 to 1 µg/mL (≈ 0.827 to 1.65 µM); in experiment [3], 32 to 64 µg/mL (≈ 52.9 to 106 µM); in experiment [4], over 128 µg/mL; in experiment [5], over 128 µg/mL; in [6], 8 to 16 µg/mL (≈ 13.2 to 26.5 µM). In addition, the MIC was over 128 µg/mL in experiment [7]; over 128 µg/mL in experiment [8]; over 128 µg/mL in [9]; over 128 µg/mL in experiment [10]; over 128 µg/mL in experiment [11]; 2 to 4 µg/mL (≈ 3.31 to 6.61 µM) in experiment [12].
`CCN1CCN(C(=O)N[C@@H](C(=O)N[C@H]2Cc3cccc(C(=O)O)c3OB2O)c2ccc(C(=O)O)c(F)c2Cl)C(=O)C1=O` (single isomer, unassigned) [Example 203]: the MIC in [1] was over 128 µg/mL; in experiment [2] it was under 0.25 µg/mL; in experiment [3], 8 to 16 µg/mL (≈ 13.2 to 26.5 µM); in [4] it was 32 to 64 µg/mL (≈ 52.9 to 106 µM); in [5], over 128 µg/mL; in experiment [6] it was 2 to 4 µg/mL (≈ 3.31 to 6.61 µM). In addition, the MIC in experiment [7] is over 128 µg/mL; in [8], over 128 µg/mL; in experiment [9], 32 to 64 µg/mL (≈ 52.9 to 106 µM); in [10] it was 8 to 16 µg/mL (≈ 13.2 to 26.5 µM); in experiment [11] it was over 128 µg/mL; in experiment [12], 0.5 to 1 µg/mL (≈ 0.827 to 1.65 µM).
Turning to `NCCN1CCN(C(=O)N[C@H](C(=O)N[C@H]2Cc3cccc(C(=O)O)c3OB2O)c2c(F)cccc2F)C(=O)C1=O` (single isomer, unassigned) [Example 204], the MIC in experiment [1] was over 128 µg/mL; in [2], 8 to 16 µg/mL (≈ 14.3 to 28.6 µM); in experiment [3], 32 to 64 µg/mL (≈ 57.2 to 114 µM); in experiment [4] it was over 128 µg/mL; in [5], over 128 µg/mL; in [6] it was over 128 µg/mL. Further, the MIC in experiment [7] was over 128 µg/mL; in experiment [8] it was over 128 µg/mL; in experiment [9], over 128 µg/mL; in [10], over 128 µg/mL; in [11], over 128 µg/mL; in experiment [12], 32 to 64 µg/mL (≈ 57.2 to 114 µM).
For `NCCN1CCN(C(=O)N[C@@H](C(=O)N[C@H]2Cc3cccc(C(=O)O)c3OB2O)c2c(F)cccc2Cl)C(=O)C1=O` (single isomer, unassigned) [Example 205], the MIC in [1] was over 128 µg/mL; in experiment [2] it was 8 to 16 µg/mL (≈ 13.9 to 27.8 µM); in experiment [3] it was 8 to 16 µg/mL (≈ 13.9 to 27.8 µM); in experiment [4], over 128 µg/mL; in [5], over 128 µg/mL; in experiment [6], 32 to 64 µg/mL (≈ 55.6 to 111 µM). In addition, the MIC in experiment [7] was over 128 µg/mL; in experiment [8], over 128 µg/mL; in experiment [9], over 128 µg/mL; in experiment [10], 32 to 64 µg/mL (≈ 55.6 to 111 µM); in experiment [11] it was over 128 µg/mL; in [12] it was 8 to 16 µg/mL (≈ 13.9 to 27.8 µM).
For the compound `NCCN1CCN(C(=O)N[C@H](C(=O)N[C@H]2Cc3cccc(C(=O)O)c3OB2O)c2c(F)cccc2Cl)C(=O)C1=O` (single isomer, unassigned) [Example 206], the MIC in experiment [1] is over 128 µg/mL; in [2], 32 to 64 µg/mL (≈ 55.6 to 111 µM); in [3], 32 to 64 µg/mL (≈ 55.6 to 111 µM); in [4] it was over 128 µg/mL; in [5], over 128 µg/mL; in experiment [6] it was over 128 µg/mL. Further, the MIC in [7] is over 128 µg/mL; in experiment [8], over 128 µg/mL; in experiment [9], over 128 µg/mL; in experiment [10], over 128 µg/mL; in [11], over 128 µg/mL; in experiment [12], 32 to 64 µg/mL (≈ 55.6 to 111 µM).
For the compound `CCN1CCN(C(=O)NC(C(=O)N[C@H]2Cc3ccc(F)c(C(=O)O)c3OB2O)c2ncc(C(=O)O)cc2F)C(=O)C1=O` (stereo partly drawn) [Example 33, 6-(2-(((R)-8-carboxy-7-fluoro-2-hydroxy-3,4-dihydro-2H-benzo[e][1,2]oxaborinin-3-yl)amino)-1-(4-ethyl-2,3-dioxopiperazine-1-carboxamido)-2-oxoethyl)-5-fluoronicotinic acid], the MIC is over 128 µg/mL in experiment [1]; 2 to 4 µg/mL (≈ 3.39 to 6.79 µM) in [2]; over 128 µg/mL in experiment [3]; over 128 µg/mL in experiment [4]; over 128 µg/mL in [5]; 2 to 4 µg/mL (≈ 3.39 to 6.79 µM) in experiment [6]. Also, the MIC was over 128 µg/mL in experiment [7]; over 128 µg/mL in [8]; over 128 µg/mL in [9]; 32 to 64 µg/mL (≈ 54.3 to 109 µM) in experiment [10]; over 128 µg/mL in experiment [11]; 0.5 to 1 µg/mL (≈ 0.849 to 1.7 µM) in experiment [12].
Regarding `NCCCN1CCN(C(=O)NC(C(=O)N[C@H]2Cc3cccc(C(=O)O)c3OB2O)c2c(F)cc(O)cc2F)C(=O)C1=O` (stereo partly drawn) [Example 183, (3R)-3-(2-(4-(3-aminopropyl)-2,3-dioxopiperazine-1-carboxamido)-2-(2,6-difluoro-4-hydroxyphenyl)acetamido)-2-hydroxy-3,4-dihydro-2H-benzo[e][1,2]oxaborinine-8-carboxylic acid], the MIC in experiment [1] was over 128 µg/mL; in experiment [2], 0.5 to 1 µg/mL (≈ 0.848 to 1.7 µM); in experiment [3] it was 2 to 4 µg/mL (≈ 3.39 to 6.79 µM); in experiment [4] it was 8 to 16 µg/mL (≈ 13.6 to 27.2 µM); in experiment [5] it was 8 to 16 µg/mL (≈ 13.6 to 27.2 µM); in experiment [6], 2 to 4 µg/mL (≈ 3.39 to 6.79 µM). Further, the MIC was 32 to 64 µg/mL (≈ 54.3 to 109 µM) in [7]; 32 to 64 µg/mL (≈ 54.3 to 109 µM) in experiment [8]; 8 to 16 µg/mL (≈ 13.6 to 27.2 µM) in experiment [9]; 8 to 16 µg/mL (≈ 13.6 to 27.2 µM) in [10]; over 128 µg/mL in experiment [11]; 2 to 4 µg/mL (≈ 3.39 to 6.79 µM) in experiment [12].
In the case of `CCN1CCN(C(=O)NC(C(=O)N[C@H]2Cc3cccc(C(=O)O)c3OB2O)c2cc([N+](=O)[O-])c(O)cc2F)C(=O)C1=O` (stereo partly drawn) [Example 184, (3R)-3-(2-(4-ethyl-2,3-dioxopiperazine-1-carboxamido)-2-(2-fluoro-4-hydroxy-5-nitrophenyl)acetamido)-2-hydroxy-3,4-dihydro-2H-benzo[e][1,2]oxaborinine-8-carboxylic acid], the MIC is over 128 µg/mL in [1]; under 0.25 µg/mL in [2]; 2 to 4 µg/mL (≈ 3.41 to 6.81 µM) in [3]; 32 to 64 µg/mL (≈ 54.5 to 109 µM) in experiment [4]; 32 to 64 µg/mL (≈ 54.5 to 109 µM) in [5]; 2 to 4 µg/mL (≈ 3.41 to 6.81 µM) in [6]. The MIC in experiment [7] was over 128 µg/mL; in experiment [8] it was over 128 µg/mL; in experiment [9] it was 32 to 64 µg/mL (≈ 54.5 to 109 µM); in experiment [10] it was 8 to 16 µg/mL (≈ 13.6 to 27.2 µM); in experiment [11], over 128 µg/mL; in [12], 0.5 to 1 µg/mL (≈ 0.851 to 1.7 µM).
As to `CCN1CCN(C(=O)NC(C(=O)N[C@H]2Cc3cccc(C(=O)O)c3OB2O)c2ccc(O)c(Cl)c2F)C(=O)C1=O` (stereo partly drawn) [Example 185, (3R)-3-(2-(3-chloro-2-fluoro-4-hydroxyphenyl)-2-(4-ethyl-2,3-dioxopiperazine-1-carboxamido)acetamido)-2-hydroxy-3,4-dihydro-2H-benzo[e][1,2]oxaborinine-8-carboxylic acid], the MIC was over 128 µg/mL in experiment [1]; under 0.25 µg/mL in [2]; 2 to 4 µg/mL (≈ 3.47 to 6.94 µM) in experiment [3]; 32 to 64 µg/mL (≈ 55.5 to 111 µM) in [4]; 32 to 64 µg/mL (≈ 55.5 to 111 µM) in experiment [5]; 2 to 4 µg/mL (≈ 3.47 to 6.94 µM) in [6]. Moreover, the MIC was over 128 µg/mL in experiment [7]; 32 to 64 µg/mL (≈ 55.5 to 111 µM) in experiment [8]; 32 to 64 µg/mL (≈ 55.5 to 111 µM) in experiment [9]; 2 to 4 µg/mL (≈ 3.47 to 6.94 µM) in experiment [10]; over 128 µg/mL in [11]; 0.5 to 1 µg/mL (≈ 0.867 to 1.73 µM) in [12].

(Values after patent publication US20230114728A1 (Venatorx Pharmaceuticals, Inc., priority 2019, published 2023).)
